The conditions of data set [1]: Crystal; DTA.
A short description of data set [2]: Molar enthalpy of transition or fusion. As to conditions: Crystal; DSC.

± gives the expanded uncertainty stated by the source.

With `O=P(CCCO)(CCCO)CCCO` [tris(3-hydroxypropyl)phosphine oxide], in data set [1], the Normal melting temperature came out at 114.61 ± 0.63 °C. Also, the “Molar enthalpy of transition or fusion” value in data set [2] came out at 8.18 ± 0.177 kcal/mol.

The values are drawn from the NIST ThermoML archive (doi:10.1021/je301029j).
